Here are results for four compounds from US20080075796A1, “Compositions and Methods for Controlling Insects” (TyraTech, Inc., priority 2003, published 2008).

Experiment [1] relates to untransfected Schneider cells. In words: Response of untransfected Schneider cells to tyramine. The following applies: concentration as high as about 100 μM. In kind it is binding, Drosophila.
The subject of the next experiment is control Schneider cells. Nature of the experiment: Intracellular Ca2+ mobilization in control Schneider cells. The following applies: FIG. 22. In kind it is cell-based, Drosophila. The method, then:
(§1) Intracellular calcium ion concentrations ([Ca^2+]i) are measured by using the acetoxymethyl (AM) ester of the fluorescent indicator fura-2 (Enan, et al., Biochem. Pharmacol vol 51, 447-454). In this study, cells expressing tyramine receptor are grown under standard conditions. A cell suspension is prepared in assay buffer (140 mM NaCL, 10 mM HEPES, 10 mM glucose, 5 mM KCl, 1 mM CaCl2, 1 mM MgCl2) and cell number adjusted to about 2×10^6 cells per ml. Briefly, about 1.0 ml cell suspension (about 2×10^6 cells) is incubated with about 5 μM Fura 2/AM for about 30 min at about 28° C. After incubation, the cells are pelleted at about 3700 rpm for about 10 sec at room temperature and then resuspended in about 1.5 ml assay buffer. [Ca^2+]i changes are analyzed in spectrofluorometer in the presence and absence of test chemicals. Excitation wave lengths are about 340 nm (generated by Ca^2+-bound fura-2) and about 380 nm (corresponding to Ca^2+-free fura-2). The fluorescence intensity is monitored at an emission wave length of about 510 nm. No absorbance of fluorescence artifacts are observed with any of the compounds used. The ratio of about 340/380 nm is calculated and plotted as a function of time.
(§2) Changes in intracellular Ca^2+ levels are calculated based on the difference between the 340/380 fluorescence ratios before and after approximately 150 seconds of the treatment.
On the technique in general: Calcium flux is commonly read through the fluorescence of an indicator in the cells.

For experiment [2], the system named is Drosophila melanogaster tyramine receptor (TyrR), SEQ ID NO: 2. Nature of the experiment: Receptor-specific binding of 3H-tyramine in Schneider cells transfected with TyrR. The following applies: whole cells, FIG. 1. The source says:
Tyramine receptor is amplified from Drosophila melanogaster head cDNA phage library GH that is obtained through the Berkeley Drosophila Genome Project (Baumann, A., 1999, Drosophila melanogaster mRNA for octopamine receptor, splice variant 1B NCBI direct submission, Accession AJ007617). The nucleic acid sequence and the peptide sequence of TyrR are set forth in SEQ ID NO: 1 and SEQ ID NO: 2, respectively. Phage DNA is purified from this library using a liquid culture lysate. (Baxter, et al., 1999, Insect Biochem Mol Biol 29, 461-467). Briefly, oligonucleotides that are used to amplify the open reading frame of the Drosophila tyramine receptor (TyrR) (Han, et al., 1998, J Neurosci 18, 3650-3658; von Nickisch-Rosenegk, et al., 1996. Insect Biochem Mol Biol 26, 817-827) consist of the 5′ oligonucleotide: 5′[…] 3′ (SEQ ID NO: 7) and 3′ oligonucleotide: 5′taatctaga[…] […]
Cells transfected with the tyramine receptor (about 1×10^6 cells/ml) are cultured in each well of a multi-well plate. […] Solubilized cells are transferred into about 4 ml Liquid Scintillation Solution (LSS) and vigorously vortexed for about 30 sec before counting the radioactivity using a Liquid Scintillation β-counter (Beckman, Model LS1801) (LSC).
With reference to FIG. 1, receptor specific binding data is expressed as fmol specific binding per 1×10^6 cells and measured as a function of ^3H-tyramine concentration. […]

In the next experiment the target is T1, tyramine receptor (TyrR) (Drosophila melanogaster, UniProt P22270).
T1 sequence (P22270 27-601): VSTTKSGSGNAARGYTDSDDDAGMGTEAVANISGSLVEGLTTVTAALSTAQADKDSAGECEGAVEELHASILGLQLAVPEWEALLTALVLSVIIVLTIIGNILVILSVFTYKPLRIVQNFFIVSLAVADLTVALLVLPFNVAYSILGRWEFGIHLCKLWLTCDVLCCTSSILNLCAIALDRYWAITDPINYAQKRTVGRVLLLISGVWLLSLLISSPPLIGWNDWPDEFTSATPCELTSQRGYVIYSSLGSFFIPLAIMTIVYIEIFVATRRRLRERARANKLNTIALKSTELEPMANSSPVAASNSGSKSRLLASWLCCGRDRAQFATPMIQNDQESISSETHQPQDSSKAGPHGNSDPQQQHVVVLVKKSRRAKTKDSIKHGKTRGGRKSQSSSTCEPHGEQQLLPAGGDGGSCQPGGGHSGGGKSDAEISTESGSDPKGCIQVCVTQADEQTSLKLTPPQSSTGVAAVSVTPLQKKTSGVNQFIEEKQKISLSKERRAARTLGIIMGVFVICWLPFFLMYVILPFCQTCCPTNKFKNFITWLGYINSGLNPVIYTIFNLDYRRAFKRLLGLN
In words: cAMP levels in Schneider cells expressing tyramine receptor. More on the design: oligonucleotides that are used to amplify the open reading frame of the Drosophila tyramine receptor (TyrR); expressed in transfected cells. In kind it is cell-based. The following applies: forskolin about 10 μM, transfected cells, vs solvent (ethanol). The method, then:
(§3) Cells are grown on dishes and the media changed the day before the treatment. When cells are approximately 95% confluent, media is aspirated and the cells are washed one time with about 5 mL of about 27° C. insect saline (170 mM NaCl, 6.0 mM KCl, 2.0 mM NaHCO3, 17.0 mM glucose, 6.0 mM NaH2PO4, 2.0 mM CaCl2, 4.0 mM MgCl2; pH 7.0). About 20 mL of insect saline is added, and cells are harvested by gentle scraping. An aliquot of the cells is counted by hemocytometer, and the cells are then centrifuged for about 5 minutes at about 1000 RPM. Cells are resuspended to give about 3×10^6 cells per mL. IBMX is added to about 200 μM. Then about 1 mL of cell suspension is aliquoted for treatment. Forskolin (cAMP inducing agent), tyramine or different composition candidates are added, and the cells are incubated at about 27° C. for about 10 minutes.
Treated cells are centrifuged at about 13000 g for about 10 seconds. The solution is aspirated and about 1 mL of about −20° C. 70% ethanol is added. The cell pellet is disrupted by vortexing and the samples placed at about −20° C. overnight. Following the ethanol extraction, cellular debris is pelleted by centrifugation at about 13000 g for about 5 minutes. The supernatant is transferred to a tube and lyophilized to dryness in a rotary speed-vac. […]
The cAMP assay is based on competition binding between endogenous cAMP and ^3H-cAMP to a cAMP binding protein. […] About 200 μL of the reaction mixture is removed and levels of ^3H-cAMP are determined by scintillation counting. Levels of endogenous cAMP from the cells are calculated using a standard curve with cold cAMP ranging from about 0 to 16 pmol per reaction.
To examine test chemical-dependent coupling of the tyramine receptor, pAcB-TyrR is stably expressed in Schneider cells. Transfected and untransfected cells are treated with tyramine (about 10 μM), LFO (about 25 μg/ml) and BSO (about 25 μg/ml) in the presence and absence of forskolin (FK) (about 10 μM). cAMP production is measured using the ^3H-cAMP assay kit (Amersham) as described above.
(Cyclic AMP is a second messenger, typically raised through Gs and lowered through Gi signalling.)

Experiment [3] concerns the target T2, Or83b receptor (Drosophila melanogaster, UniProt Q9VNB5).
T2 construct: His (from vector pAc5.1/V5-His B) (C); expressed in transfected cells
T2 sequence (Q9VNB5 1-486): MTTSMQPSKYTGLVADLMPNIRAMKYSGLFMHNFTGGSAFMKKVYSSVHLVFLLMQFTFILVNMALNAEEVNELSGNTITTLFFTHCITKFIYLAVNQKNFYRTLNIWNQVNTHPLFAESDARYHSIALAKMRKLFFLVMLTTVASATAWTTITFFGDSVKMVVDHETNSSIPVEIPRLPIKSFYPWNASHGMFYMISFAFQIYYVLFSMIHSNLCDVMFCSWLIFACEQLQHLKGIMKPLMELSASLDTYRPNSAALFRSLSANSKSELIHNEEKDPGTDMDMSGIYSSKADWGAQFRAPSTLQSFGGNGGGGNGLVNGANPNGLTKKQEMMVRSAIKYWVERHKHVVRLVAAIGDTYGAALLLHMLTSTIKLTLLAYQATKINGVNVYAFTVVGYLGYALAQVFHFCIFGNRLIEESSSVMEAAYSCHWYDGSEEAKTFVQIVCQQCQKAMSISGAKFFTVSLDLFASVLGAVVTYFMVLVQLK
In words: cAMP production in Schneider cells expressing Or83b receptor. In kind it is cell-based. The procedure: as §3
(§4) Treated cells are centrifuged at about 13000 g for about 10 seconds. The solution is aspirated and about 1 mL of about −20° C. 70% ethanol is added. The cell pellet is disrupted by vortexing and the samples placed at about −20° C. overnight. Following the ethanol extraction, cellular debris is pelleted by centrifugation at about 13000 g for about 5 minutes. The supernatant is transferred to a tube and lyophilized to dryness in a rotary speed-vac. The resulting extract is resuspended in about 100 μL TE and used for the cAMP assay.
The cAMP assay is based on competition binding between endogenous cAMP and ^3H-cAMP to a cAMP binding protein. The ^3H-cAMP Biotrak system (Amersham Biosciences) is used for this assay as per the manufacturer's instructions. Briefly, about 50 μL of the cellular extract is incubated with about 50 μL ^3H-cAMP and about 100 μL cAMP binding protein in an ice bath for about 2-4 hours. Charcoal (about 100 μL) is then added and the solution centrifuged for about 3 minutes at about 4° C. About 200 μL of the reaction mixture is removed and levels of ^3H-cAMP are determined by scintillation counting. Levels of endogenous cAMP from the cells are calculated using a standard curve with cold cAMP ranging from about 0 to 16 pmol per reaction.
To ensure that the cAMP cascade in this cell model is functionally active, forskolin, a cAMP inducer, is used as standard agent. Cyclic-AMP levels are measured using the cAMP assay described above in Example 2. […]
To determine the effect of various plant essential oils on intracellular cAMP production and the tyramine-dependent changes of cAMP in cells expressing one of the olfactory receptors, cells from each cell model are treated with LFO (about 50 μg/ml) and BSO (about 50 μg/ml) in the presence and absence of tyramine (about 20 μM) and forskolin (about 10 μM) and intracellular cAMP is thereafter quantified using the cAMP assay described above in Example 2.

Experiment [4] addresses T3, Or43a receptor (Drosophila melanogaster, UniProt P81917, L154V).
T3 construct: His (from vector pAc5.1/V5-His B) (C); expressed in transfected cells
In words: cAMP production in Schneider cells expressing Or43a receptor. In kind it is cell-based. To be noted: agent alone; tyramine about 20 μM, LFO, BSO about 50 μg/ml, forskolin about 10 μM. The procedure: Cells are grown on dishes and the media changed the day before the treatment. […] About 20 mL of insect saline is added, and cells are harvested by gentle scraping. An aliquot of the cells is counted by hemocytometer, and the cells are then centrifuged for about 5 minutes at about 1000 RPM. Cells are resuspended to give about 3×10^6 cells per mL. IBMX is added to about 200 μM. Then about 1 mL of cell suspension is aliquoted for treatment. Forskolin (cAMP inducing agent), tyramine or different composition candidates are added, and the cells are incubated at about 27° C. for about 10 minutes.
as §4
The cAMP assay is based on competition binding between endogenous cAMP and ^3H-cAMP to a cAMP binding protein. The ^3H-cAMP Biotrak system (Amersham Biosciences) is used for this assay as per the manufacturer's instructions. Briefly, about 50 μL of the cellular extract is incubated with about 50 μL ^3H-cAMP and about 100 μL cAMP binding protein in an ice bath for about 2-4 hours. Charcoal (about 100 μL) is then added and the solution centrifuged for about 3 minutes at about 4° C. About 200 μL of the reaction mixture is removed and levels of ^3H-cAMP are determined by scintillation counting.
As such, the cells expressing olfactory receptors have a functionally active cAMP cascade.

Experiment [5] deals with T3, Or43a receptor. Nature of the experiment: Intracellular Ca^2+ mobilization in Schneider cells expressing Or43a receptor. In kind it is cell-based. The procedure: as §1
(§5) Intracellular Ca^2+ levels are measured using the method described above in Example 3.
as §2

The target of experiment [6] is T2, Or83b receptor. In words: Intracellular Ca^2+ mobilization in Schneider cells expressing Or83b receptor. It is filed as cell-based. To be noted: ionomycin about 2 μM, tyramine about 10 μM. The method, then: as §1, §5

SMILES strings stand for the structures.

T3 sequence (P81917 whole entry L154V): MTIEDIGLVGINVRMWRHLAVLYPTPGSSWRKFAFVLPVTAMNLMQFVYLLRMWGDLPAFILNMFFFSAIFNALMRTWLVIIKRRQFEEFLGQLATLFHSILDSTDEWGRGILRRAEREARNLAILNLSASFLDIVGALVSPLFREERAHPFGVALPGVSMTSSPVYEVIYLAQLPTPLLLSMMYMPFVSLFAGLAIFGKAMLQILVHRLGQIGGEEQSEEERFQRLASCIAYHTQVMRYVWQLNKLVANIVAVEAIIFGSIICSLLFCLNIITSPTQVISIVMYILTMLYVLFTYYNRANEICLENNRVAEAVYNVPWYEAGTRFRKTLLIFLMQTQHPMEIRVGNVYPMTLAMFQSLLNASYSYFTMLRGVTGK

Consider `NCCc1ccc(O)cc1` [Tyramine, tyramine], for which the “response of untransfected cells” value in experiment [1] is “do not respond”. Further, in the experiment on control Schneider cells, the “mobilization of Ca2+ in control cells” value is given as “induce mobilization of Ca^2+”. Besides, the “3H-tyramine concentration at which maximum specific binding occurs” value in experiment [2] is given as “about 5 nM”.
As to `C=C[C@@]1(C)CC(=O)[C@]2(O)[C@@]3(C)[C@@H](O)CCC(C)(C)[C@@H]3[C@H](O)[C@H](OC(C)=O)[C@@]2(C)O1` [forskolin], the “increase in cAMP levels over basal level” value at tyramine receptor (TyrR) is ~19 fold. For the same compound, the “increase in the production of cAMP” value on Or83b receptor [3] (forskolin about 10 μM (Example 11)) is on record as ~3000 fold. Moreover, the “increase from basal cAMP levels” value on Or83b receptor [3] (forskolin about 10 μM, about 10 min, room temperature) was ~13 fold. Further, the “change in cAMP levels” value on Or43a receptor [4] is “increase in cAMP levels”.
As for `C[C@H](CCC(=O)O)C[C@H](C)C[C@H](C)C(=O)/C=C(\O)[C@H](C)C[C@H](C)C/C=C/[C@@H](C)[C@@H](O)[C@@H](C)[C@@H](O)C[C@@H]1CC[C@@](C)([C@H]2CC[C@@](C)([C@@H](C)O)O2)O1` [ionomycin, reference compound], the “change in intracellular Ca^2+ levels (340/380 fluorescence ratio)” value on Or43a receptor [5] (before vs approximately 150 seconds after treatment) is listed as “only negligibly”. For the same compound, the “increase in intracellular calcium” value at Or43a receptor [5] (ionomycin about 2 μM, tyramine about 10 μM) is reported as ~7 fold; on Or83b receptor [6], “Approximately 3.8 fold”.
In the case of `C[C@H](CCC(=O)O)C[C@H](C)C[C@H](C)C(=O)/C=C(\O)[C@H](C)C[C@H](C)C/C=C/[C@@H](C)[C@@H](O)[C@@H](C)[C@@H](O)C[C@@H]1CC[C@@](C)([C@H]2CC[C@@](C)([C@@H](C)O)O2)O1` [ionomycin], in the experiment on control Schneider cells, the “mobilization of Ca2+ in control cells” value is “induce mobilization of Ca^2+”.
